Experimental data as given in ChEMBL document CHEMBL4346678, “Synthesis and anti-cancer evaluation of folic acid-peptide- paclitaxel conjugates for addressing drug resistance” (Eur J Med Chem, 2019).
Activity calls are given as the source filed them. No cut-off for these calls is given here. Starred links: 1 amine or outer side, 2 acyl side, 3 side chain; linkers in the order of their positions; H or OH if unused. Residues, ends and D or L forms follow the SMILES beside them. *: point of attachment. X1 = CC(=O)O[C@H]1C(=O)[C@@]2(C)[C@H]([C@H](OC(=O)c3ccccc3)[C@]3(O)C[C@H](OC(=O)[C@H](OC(=O)CCCCCN4C(=O)CC(*)C4=O)[C@@H](NC(=O)c4ccccc4)c4ccccc4)C(C)=C1C3(C)C)[C@]1(OC(C)=O)CO[C@@H]1C[C@@H]2O; Pteroyl = Nc1nc2ncc(CNc3ccc(C(=O)*)cc3)nc2c(=O)[nH]1; γGlu = O=C(O)[C@H](CCC(=O)[*:2])N[*:1]

Tests used:
MCF7/PTX [1] = assay: Induction of membrane disruption in human MCF7/PTX cells incubated for 12 hrs by LDH release assay; type: functional, cell-based
MCF7/PTX [2] = assay: Induction of apoptosis in human MCF7/PTX cells assessed as early apoptotic cells at 4 uM incubated for 12 hrs by Annexin V-FITC/propidium iodide staining based flow cytometric analysis (reference value: 1.1%); type: functional
MCF7/PTX [3] = assay: Induction of apoptosis in human MCF7/PTX cells assessed as live cells at 4 uM incubated for 12 hrs by Annexin V-FITC/propidium iodide staining based flow cytometric analysis (reference value: 95.9%); type: functional
MCF7/PTX [4] = assay: Induction of apoptosis in human MCF7/PTX cells assessed as necrotic cells at 2 uM incubated for 12 hrs by Annexin V-FITC/propidium iodide staining based flow cytometric analysis (reference value: 2.1%); type: functional
MCF7/PTX [5] = assay: Induction of apoptosis in human MCF7/PTX cells assessed as late apoptotic cells at 2 uM incubated for 12 hrs by Annexin V-FITC/propidium iodide staining based flow cytometric analysis (reference value: 0.9%); type: functional
MCF7/PTX [6] = assay: Induction of apoptosis in human MCF7/PTX cells assessed as early apoptotic cells at 2 uM incubated for 12 hrs by Annexin V-FITC/propidium iodide staining based flow cytometric analysis (reference value: 1.1%); type: functional
MCF7/PTX [7] = assay: Induction of apoptosis in human MCF7/PTX cells assessed as live cells at 2 uM incubated for 12 hrs by Annexin V-FITC/propidium iodide staining based flow cytometric analysis (reference value: 95.9%); type: functional
MCF7/PTX [8] = assay: Induction of apoptosis in human MCF7/PTX cells assessed as necrotic cells at 1 uM incubated for 12 hrs by Annexin V-FITC/propidium iodide staining based flow cytometric analysis (reference value: 2.1%); type: functional
MCF7/PTX [9] = assay: Induction of apoptosis in human MCF7/PTX cells assessed as late apoptotic cells at 1 uM incubated for 12 hrs by Annexin V-FITC/propidium iodide staining based flow cytometric analysis (reference value: 0.9%); type: functional
MCF7/PTX [10] = assay: Induction of apoptosis in human MCF7/PTX cells assessed as early apoptotic cells at 1 uM incubated for 12 hrs by Annexin V-FITC/propidium iodide staining based flow cytometric analysis (reference value: 1.1%); type: functional
MCF7/PTX [11] = assay: Induction of apoptosis in human MCF7/PTX cells assessed as live cells at 1 uM incubated for 12 hrs by Annexin V-FITC/propidium iodide staining based flow cytometric analysis (reference value: 95.9%); type: functional
MCF7/PTX [12] = assay: Induction of apoptosis in human MCF7/PTX cells assessed as late apoptotic cells at 3 uM incubated for 12 hrs by Annexin V-FITC/propidium iodide staining based flow cytometric analysis (reference value: 0.9%); type: functional
MCF7 = assay: Cytotoxicity against human MCF7 cells incubated for 48 hrs by MTT assay; type: functional, cell-based; settings: MCF7, 48 h
MCF7/PTX [13] = assay: Cytotoxicity against human MCF7/PTX cells incubated for 48 hrs by MTT assay; type: functional, cell-based
K562 = assay: Cytotoxicity against human K562 cells incubated for 48 hrs by MTT assay; type: functional, cell-based; settings: K562, 48 h
A2780 = assay: Cytotoxicity against human A2780 cells incubated for 48 hrs by MTT assay; type: functional, cell-based; settings: A2780, 48 h
SK-OV-3 = assay: Cytotoxicity against human SKOV3 cells incubated for 48 hrs by MTT assay; type: functional, cell-based; settings: SK-OV-3, 48 h
MCF7/PTX [14] = assay: Induction of apoptosis in human MCF7/PTX cells assessed as necrotic cells at 0.5 uM incubated for 12 hrs by Annexin V-FITC/propidium iodide staining based flow cytometric analysis (reference value: 2.1%); type: functional
HUVEC = assay: Cytotoxicity against HUVEC incubated for 48 hrs by MTT assay; type: cell-based; settings: Homo sapiens
MCF7/PTX [15] = assay: Induction of apoptosis in human MCF7/PTX cells assessed as late apoptotic cells at 0.5 uM incubated for 12 hrs by Annexin V-FITC/propidium iodide staining based flow cytometric analysis (reference value: 0.9%); type: functional
MCF7/PTX [16] = assay: Induction of apoptosis in human MCF7/PTX cells assessed as early apoptotic cells at 0.5 uM incubated for 12 hrs by Annexin V-FITC/propidium iodide staining based flow cytometric analysis (reference value: 1.1%); type: functional
MCF7/PTX [17] = assay: Induction of apoptosis in human MCF7/PTX cells assessed as live cells at 0.5 uM incubated for 12 hrs by Annexin V-FITC/propidium iodide staining based flow cytometric analysis (reference value: 95.9%); type: functional
MCF7/PTX [18] = assay: Induction of apoptosis in human MCF7/PTX cells assessed as necrotic cells at 3 uM incubated for 12 hrs by Annexin V-FITC/propidium iodide staining based flow cytometric analysis (reference value: 2.1%); type: functional
MCF7/PTX [19] = assay: Induction of apoptosis in human MCF7/PTX cells assessed as live cells at 3 uM incubated for 12 hrs by Annexin V-FITC/propidium iodide staining based flow cytometric analysis (reference value: 95.9%); type: functional
MCF7/PTX [20] = assay: Induction of apoptosis in human MCF7/PTX cells assessed as early apoptotic cells at 3 uM incubated for 12 hrs by Annexin V-FITC/propidium iodide staining based flow cytometric analysis (reference value: 1.1%); type: functional
Erythrocyte = assay: Hemolytic activity in Wistar rat erythrocytes incubated for 1 hr; type: ADME, cell-based
MCF7/PTX [21] = assay: Induction of membrane disruption in human MCF7/PTX cells at 3 uM incubated for 12 hrs by AO/EB double staining based fluorescence microscopic method; type: functional, cell-based
MCF7/PTX [22] = assay: Induction of apoptosis in human MCF7/PTX cells assessed as late apoptotic cells at 4 uM incubated for 12 hrs by Annexin V-FITC/propidium iodide staining based flow cytometric analysis (reference value: 0.9%); type: functional
MCF7/PTX [23] = assay: Induction of apoptosis in human MCF7/PTX cells assessed as necrotic cells at 4 uM incubated for 12 hrs by Annexin V-FITC/propidium iodide staining based flow cytometric analysis (reference value: 2.1%); type: functional
MCF7/PTX [24] = assay: Induction of apoptosis in human MCF7/PTX cells assessed as live cells at 6 uM incubated for 12 hrs by Annexin V-FITC/propidium iodide staining based flow cytometric analysis (reference value: 95.9%); type: functional
MCF7/PTX [25] = assay: Induction of apoptosis in human MCF7/PTX cells assessed as early apoptotic cells at 6 uM incubated for 12 hrs by Annexin V-FITC/propidium iodide staining based flow cytometric analysis (reference value: 1.1%); type: functional
MCF7/PTX [26] = assay: Induction of apoptosis in human MCF7/PTX cells assessed as late apoptotic cells at 6 uM incubated for 12 hrs by Annexin V-FITC/propidium iodide staining based flow cytometric analysis (reference value: 0.9%); type: functional
MCF7/PTX [27] = assay: Induction of apoptosis in human MCF7/PTX cells assessed as necrotic cells at 6 uM incubated for 12 hrs by Annexin V-FITC/propidium iodide staining based flow cytometric analysis (reference value: 2.1%); type: functional
MCF7/PTX [28] = assay: Induction of mitochondrial membrane potential loss in human MCF7/PTX cells at 3 uM incubated for 12 hrs by JC1 staining-based confocal microscopic method; type: functional, cell-based
MCF7/PTX [29] = assay: Induction of apoptosis in human MCF7/PTX cells assessed as increase in cleaved caspase 3 level in cytoplasm at 3 uM incubated for 2 hrs by Western blot analysis; type: functional, cell-based
MCF7/PTX [30] = assay: Induction of apoptosis in human MCF7/PTX cells assessed increase in cytochrome-c expression in cytoplasm at 3 uM incubated for 2 hrs by Western blot analysis; type: functional, cell-based
Tubulin (Sus scrofa) = Tubulin (Sus scrofa) (UniProt P02554+P02550); assay: Induction of porcine brain tubulin polymerization at 3 uM by fluorescence analysis
[31] = Half life in Wistar rat plasma at 500 ug/ml measured over 24 hrs at 37 degC by UPLC/MS analysis; type: ADME, cell-free
[32] = Antitumor activity against […] cells xenografted in ICR mouse assessed as reduction in tumor volume at 12 umol/kg administered once every 2 days via peritumoral route for 2 weeks measured for 22 days by caliper analysis relative to control; type: functional
[33] = Toxicity in ICR mouse xenografted with […] H22 cells assessed as change in body weight at 12 umol/kg administered once every 2 days via peritumoral route for 2 weeks; settings: in vivo, other
MCF7/PTX [34] = assay: Induction of apoptosis in human MCF7/PTX cells incubated for 12 hrs by Annexin V-FITC/propidium iodide staining-based flow cytometric analysis; type: functional, cell-based
MCF7/PTX [35] = assay: Induction of membrane disruption in human MCF7/PTX cells incubated for 12 hrs by AO/EB double-staining based fluorescence microscopic method; type: functional, cell-based
[36] = Solubility of the compound in water; type: physicochemical

Chain of Tubulin (Sus scrofa) (P02550 whole entry, looked up): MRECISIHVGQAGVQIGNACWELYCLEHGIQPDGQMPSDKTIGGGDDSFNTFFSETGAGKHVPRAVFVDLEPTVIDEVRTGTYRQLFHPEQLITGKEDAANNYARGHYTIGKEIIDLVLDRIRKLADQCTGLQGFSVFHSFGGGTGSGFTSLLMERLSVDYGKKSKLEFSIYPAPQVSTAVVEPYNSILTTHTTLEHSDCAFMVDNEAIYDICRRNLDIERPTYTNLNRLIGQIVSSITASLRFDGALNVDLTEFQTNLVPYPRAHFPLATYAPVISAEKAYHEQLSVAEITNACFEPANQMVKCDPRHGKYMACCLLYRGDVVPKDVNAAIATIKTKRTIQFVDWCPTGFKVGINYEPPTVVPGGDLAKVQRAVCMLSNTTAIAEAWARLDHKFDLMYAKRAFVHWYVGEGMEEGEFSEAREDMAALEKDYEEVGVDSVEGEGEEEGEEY
Chain of Tubulin (Sus scrofa) (P02554 whole entry, looked up): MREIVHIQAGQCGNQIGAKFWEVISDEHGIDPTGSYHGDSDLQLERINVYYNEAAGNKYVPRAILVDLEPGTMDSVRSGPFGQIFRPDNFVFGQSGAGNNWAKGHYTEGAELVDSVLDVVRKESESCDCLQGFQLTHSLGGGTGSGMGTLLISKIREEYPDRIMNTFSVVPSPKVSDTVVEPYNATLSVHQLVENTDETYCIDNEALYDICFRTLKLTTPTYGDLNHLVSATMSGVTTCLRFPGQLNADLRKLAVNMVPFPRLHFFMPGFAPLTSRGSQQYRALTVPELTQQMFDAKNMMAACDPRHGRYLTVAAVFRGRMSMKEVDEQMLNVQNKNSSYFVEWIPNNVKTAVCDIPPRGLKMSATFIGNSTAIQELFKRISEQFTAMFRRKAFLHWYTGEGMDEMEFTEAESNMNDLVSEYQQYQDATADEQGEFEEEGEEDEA

## CC(=O)O[C@H]1C(=O)[C@@]2(C)[C@H]([C@H](OC(=O)c3ccccc3)[C@]3(O)C[C@H](OC(=O)[C@H](OC(=O)CCCCCN4C(=O)CC(SC[C@H](NC(=O)[C@H](CCCNC(=N)N)NC(=O)[C@H](CCCNC(=N)N)NC(=O)[C@H](CC(C)C)NC(=O)[C@H](CCCNC(=N)N)NC(=O)[C@H](CCCNC(=N)N)NC(=O)[C@H](Cc5ccccc5)NC(=O)[C@H](Cc5ccccc5)NC(=O)[C@H](CCCNC(=N)N)NC(=O)[C@H](CCCNC(=N)N)NC(=O)[C@H](Cc5ccccc5)NC(=O)[C@H](CCCNC(=N)N)NC(=O)[C@H](CCCNC(=N)N)NC(=O)[C@@H](NC(=O)[C@H](CC(C)C)NC(=O)CC[C@H](NC(=O)c5ccc(NCc6cnc7nc(N)[nH]c(=O)c7n6)cc5)C(=O)O)C(C)C)C(=O)N[C@H](C(=O)N[C@@H](CC(C)C)C(=O)N[C@@H](CC(C)C)C(N)=O)C(C)C)C4=O)[C@@H](NC(=O)c4ccccc4)c4ccccc4)C(C)=C1C3(C)C)[C@]1(OC(C)=O)CO[C@@H]1C[C@@H]2O (stereo partly drawn) ({Pteroyl-γGlu}-LVRRFRRFFRRLRRC(X1)VLL-NH2)
MCF7/PTX [1]
  Activity: Dose-dependent effect
MCF7/PTX [2]
  Activity: 1.4%
MCF7/PTX [3]
  Activity: 28.8%
MCF7/PTX [4]
  Activity: 3.9%
MCF7/PTX [5]
  Activity: 28.8%
MCF7/PTX [6]
  Activity: 1.5%
MCF7/PTX [7]
  Activity: 65.8%
MCF7/PTX [8]
  Activity: 5.6%
MCF7/PTX [9]
  Activity: 11.4%
MCF7/PTX [10]
  Activity: 1.6%
MCF7/PTX [11]
  Activity: 81.4%
MCF7/PTX [12]
  Activity: 41.6%
MCF7
  IC50: 1.39 µM
MCF7/PTX [13]
  IC50: 2.92 µM
K562
  IC50: 3.85 µM
A2780
  IC50: 1.42 µM
SK-OV-3
  IC50: 5.49 µM
MCF7/PTX [14]
  Activity: 7.1%
HUVEC
  IC50: 45.2 µM
MCF7/PTX [15]
  Activity: 7.4%
MCF7/PTX [16]
  Activity: 2.4%
MCF7/PTX [17]
  Activity: 83.1%
MCF7/PTX [18]
  Activity: 5.6%
MCF7/PTX [19]
  Activity: 51.6%
MCF7/PTX [20]
  Activity: 1.2%
Erythrocyte
  Activity: Toxic
MCF7/PTX [21]
  Activity: Active
MCF7/PTX [22]
  Activity: 54.6%
MCF7/PTX [23]
  Activity: 15.1%
MCF7/PTX [24]
  Activity: 29.2%
MCF7/PTX [25]
  Activity: 1.3%
MCF7/PTX [26]
  Activity: 62%
MCF7/PTX [27]
  Activity: 7.5%
MCF7/PTX [28]
  Activity: Active
MCF7/PTX [29]
  Activity: Active
MCF7/PTX [30]
  Activity: Active
Tubulin (Sus scrofa)
  Activity: Active
[31]
  half-life at 500 ug/ml: 5.9 h
[32]
  inhibition in vivo at 12 µmol/kg: 69%
[33]
  Activity: Non-Toxic
MCF7/PTX [34]
  Activity: Dose-dependent effect
MCF7/PTX [35]
  Activity: Dose-dependent effect
[36]
  solubility: > 20 mg/mL
